Source: US9994576B2, “Substituted pyrazolo[3,4-d]pyrimidines as kinase inhibitors” (PRINCIPIA BIOPHARMA INC., priority 2012, dated 2018)

Molecular target: protein target (Homo sapiens (Human), UniProt Q06187)
Assay: Reversibility of binding (compound in solution before/after denaturation or digestion of target, HPLC-MS/MS)
Conditions: native (folded) target in excess over compound
Experimental: The following approach was developed to differentiate compounds that form irreversible covalent bond with their targets, such as non-cyano containing acrylamide compounds, from compound that form reversible covalent bond i.e., compounds and/or pharmaceutically acceptable salts of the present disclosure. […] The reactions were then treated with perturbations including both denaturation with 5 M guanidine hydrochloride and digestion with trypsin, disrupting proper folding of the target. […] The concentration of compound in solution was assessed both preceding and following perturbation using high performance liquid chromatography (HPLC) coupled to tandem mass spectrometry.

Sequence of protein target (Q06187 whole entry): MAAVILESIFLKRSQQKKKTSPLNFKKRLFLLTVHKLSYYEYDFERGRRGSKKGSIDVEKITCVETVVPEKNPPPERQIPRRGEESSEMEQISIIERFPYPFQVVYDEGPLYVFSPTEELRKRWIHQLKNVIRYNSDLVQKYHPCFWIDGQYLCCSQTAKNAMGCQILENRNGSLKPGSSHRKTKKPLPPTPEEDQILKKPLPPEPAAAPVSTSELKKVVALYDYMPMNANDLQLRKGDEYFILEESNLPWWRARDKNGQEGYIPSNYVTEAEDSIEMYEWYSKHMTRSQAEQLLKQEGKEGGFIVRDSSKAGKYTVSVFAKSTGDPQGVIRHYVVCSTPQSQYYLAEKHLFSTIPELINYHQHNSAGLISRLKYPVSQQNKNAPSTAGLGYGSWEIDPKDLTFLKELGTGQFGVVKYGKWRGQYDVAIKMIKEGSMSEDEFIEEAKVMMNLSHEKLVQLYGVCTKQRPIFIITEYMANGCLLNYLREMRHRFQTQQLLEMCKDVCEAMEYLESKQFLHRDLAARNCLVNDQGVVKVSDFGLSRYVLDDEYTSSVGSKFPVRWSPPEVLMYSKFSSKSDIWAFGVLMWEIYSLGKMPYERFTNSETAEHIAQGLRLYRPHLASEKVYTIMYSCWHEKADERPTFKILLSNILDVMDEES

Compound in solution in the native state?: no
Compound: CN(C1COC1)C(C)(C)C=C(C#N)C(=O)N1CCC[C@H]1Cn1nc(-c2ccc(Oc3ccccc3)cc2F)c2c(N)ncnc21 [Example 10, 2-[(2S)-2-[[4-amino-3-(2-fluoro-4-phenoxy-phenyl)pyrazolo[3,4-d]pyrimidin-1-yl]methyl]pyrrolidine-1-carbonyl]-4-methyl-4-[methyl(oxetan-3-yl)amino]pent-2-enenitrile]
